Experimental data as given in ChEMBL document CHEMBL5584231, “Rational design of a new short anticancer peptide with good potential for cancer treatment” (Eur J Med Chem, 2024).
Calls of active or inactive are those of the source. No cut-off for these calls is given here. Non-standard residues stand in square brackets, D forms with d. Residues, ends and D or L forms follow the SMILES beside them. Aad = N[C@@H](CCCC(=O)O)C(=O)O

Key:
[1] = Toxicity in female Balb/c mouse implanted with mouse 4T1 cells assessed as pathological changes in kidney at 12 micromol/kg, ip administered every other day for 2 weeks by H and E staining based analysis; type: organism-based; conditions: in vivo, 336 h, dose 12 µmol/kg
MCF7 [2] = test: Induction of apoptosis in human MCF7 cells assessed as dead cells at 1 times IC50 measured after 24 hrs by Annexin V-FITC staining based flow cytometry analysis (reference value: 6.41%); type: functional
4T1 [3] = test: Antitumor activity against mouse 4T1 cells implanted in female Balb/c mouse assessed as reduction in tumor growth at 12 micromol/kg, ip administered every other day for 2 weeks and measured every 2 days; type: functional, organism-based; conditions: dose 12.0 µmol/kg
Cell membrane [4] = test: Induction of morphological changes in cell membrane of human MCF7 cells assessed as membrane damage at 1 times IC50 incubated for 1 hr by SEM analysis; type: cell membranes
[5] = Drug uptake in human MCF7 cells at 5 uM incubated for 1 hr by laser confocal scanning microscopic analysis; type: ADME, cell-based; conditions: mcf7, 1 h
4T1 [6] = test: Antitumor activity against mouse 4T1 cells implanted in female Balb/c mouse assessed as increase in tumor cell apoptosis at 12 micromol/kg, ip administered every other day for 2 weeks by H and E staining based analysis; type: functional, organism-based; conditions: dose 12.0 µmol/kg
Cell membrane [7] = test: Disruption of cell membrane in human MCF7 cells assessed as LDH release at 40 uM incubated for 1 hr by fluorescence based microplate reader analysis relative to control; type: cell membranes
HeLa = test: Cytotoxicity against human HeLa cells assessed as inhibition of cell growth incubated for 1 hr by MTT assay; type: functional, cell-based
[8] = Toxicity in female Balb/c mouse implanted with mouse 4T1 cells assessed as pathological changes in lung at 12 micromol/kg, ip administered every other day for 2 weeks by H and E staining based analysis; type: organism-based; conditions: in vivo, 336 h, dose 12 µmol/kg
MCF7 [9] = test: Cytotoxicity against human MCF7 cells assessed as cell viability at 2 times IC50 measured for 30 mins by MTT assay relative to control; type: functional; conditions: 0.5 h
[10] = Acute toxicity in female Balb/c mouse assessed as cellular swelling in liver at approximately LD50 administered as single ip dose by H and E staining based analysis; type: organism-based; conditions: in vivo
MCF7 [11] = test: Induction of apoptosis in human MCF7 cells assessed as increase in intracellular ROS generation at 1 times IC50 measured after 0 to 360 mins by DCFH-DA staining based analysis; type: functional, cell-based; conditions: time 0-360 min
[12] = Acute toxicity in female Balb/c mouse assessed as heart damage at approximately LD50 administered as single ip dose by H and E staining based analysis; type: organism-based; conditions: in vivo
MCF7 [13] = test: Induction of apoptosis in human MCF7 cells assessed as live cells at 1 times IC50 measured after 24 hrs by Annexin V-FITC staining based flow cytometry analysis (reference value: 92%); type: functional
[14] = Toxicity in female Balb/c mouse implanted with mouse 4T1 cells assessed as reduction in body weight at 12 micromol/kg, ip administered every other day for 2 weeks and measured every 2 days; type: organism-based; conditions: in vivo, 336 h, dose 12 µmol/kg
[15] = Toxicity in female Balb/c mouse implanted with mouse 4T1 cells assessed as pathological changes in liver at 12 micromol/kg, ip administered every other day for 2 weeks by H and E staining based analysis; type: organism-based; conditions: in vivo, 336 h, dose 12 µmol/kg
Cell membrane [16] = test: Disruption of cell membrane integrity in human MCF7 cells assessed as increase in PI fluorescence at 2 times IC50 measured after 0 to 120 mins by laser confocal scanning microscopic analysis; type: cell membranes; conditions: time 0-120 min
[17] = Therapeutic index, ratio of HC10 for mouse RBC to IC50 for cytotoxicity against human A549 cells; type: toxicity, cell-based; conditions: mouse RBC and A549 cells, read-out: TI
[18] = Acute toxicity in female Balb/c mouse assessed as lung damage at approximately LD50 administered as single ip dose by H and E staining based analysis; type: organism-based; conditions: in vivo
[19] = Toxicity in female Balb/c mouse implanted with mouse 4T1 cells assessed as pathological changes in heart at 12 micromol/kg, ip administered every other day for 2 weeks by H and E staining based analysis; type: organism-based; conditions: in vivo, 336 h, dose 12 µmol/kg
[20] = Therapeutic index, ratio of HC10 for mouse RBC to IC50 for cytotoxicity against human MCF7 cells; type: toxicity, cell-based; conditions: mouse RBC and MCF7 cells, read-out: TI
MCF7 [21] = test: Anti-invasion activity in human MCF7 cells assessed as reduction in number of passing cells on polycarbonate membrane at 1 times IC50 measured after 24 hrs by crystal violet staining based transwell assay; type: functional, cell-based
[22] = Drug uptake in HK-2 cells at 5 uM incubated for 1 hr by laser confocal scanning microscopic analysis; type: ADME, cell-based; conditions: human, hk-2, 1 h
[23] = Stability in mouse serum assessed as compound remaining at 10 mM incubated for 6 hrs by RP-HPLC analysis; type: ADME, cell-free; conditions: read-out: Stability
[24] = Stability in mouse serum assessed as compound remaining at 10 mM incubated for 12 hrs by RP-HPLC analysis; type: ADME, cell-free; conditions: read-out: Stability
MCF7 [25] = test: Cytotoxicity against human MCF7 cells assessed as reduction in cell survival at 0.5 to 1 times IC50 incubated for 24 hrs in presence of 1 uM paclitaxel by MTT assay; type: functional, cell-based
Cell membrane [26] = test: Induction of morphological changes in cell membrane of human MCF7 cells assessed as cell depression at 1 times IC50 incubated for 1 hr by SEM analysis; type: cell membranes
Cell membrane [27] = test: Disruption of cell membrane integrity in human MCF7 cells assessed as increase in PI fluorescence at 1 times IC50 by laser confocal scanning microscopic analysis; conditions: time 0-120 min, TDE = time-dependent effect
MCF7 [28] = test: Induction of cell cycle arrest at G0/G1 phase in human MCF7 cells at 1 times IC50 measured after 24 hrs by PI/RNase staining based flow cytometry analysis; type: functional
MCF7 [29] = test: Induction of apoptosis in human MCF7 cells assessed as early apoptotic cells at 1 times IC50 measured after 24 hrs by Annexin V-FITC staining based flow cytometry analysis (reference value: 0.014%); type: functional
Cell membrane [30] = test: Induction of morphological changes in cell membrane of human MCF7 cells assessed as intracellular outflow at 1 times IC50 incubated for 1 hr by SEM analysis; type: cell membranes
[31] = Stability in mouse serum assessed as half life at 10 mM incubated for 12 hrs by RP-HPLC analysis; type: ADME, cell-free
[32] = Acute toxicity in female Balb/c mouse assessed as cellular swelling in spleen at approximately LD50 administered as single ip dose by H and E staining based analysis; type: organism-based; conditions: in vivo
[33] = Toxicity in female Balb/c mouse implanted with mouse 4T1 cells assessed as animal death at 12 micromol/kg, ip administered every other day for 2 weeks; type: organism-based; conditions: in vivo, 336 h, dose 12 µmol/kg
Cell membrane [34] = test: Induction of cell membrane damage in human MCF7 cells assessed as protein leakage at 1 to 2 times IC50 measured after 0.5 to 6 hrs by UV based analysis; type: cell membranes; conditions: time 0.5-6 hrs
MCF7 [35] = test: Cytotoxicity against human MCF7 cells assessed as cell death at 1 times IC50 measured within 30 mins by MTT assay relative to control; type: functional; conditions: 0.5 h
[36] = Cytotoxicity against RG cells (unknown origin) assessed as inhibition of cell growth incubated for 1 hr by MTT assay; type: functional, cell-based
[37] = Therapeutic index, ratio of HC10 for mouse RBC to IC50 for cytotoxicity against RG cells (unknown origin); type: toxicity, cell-based; conditions: mouse RBC and RG cells, read-out: TI

Row | SMILES | Activity [1] | Activity (MCF7 [2]) [%] | Activity (4T1 [3]) | Activity (Cell membrane [4]) | Drug uptake [5] | Activity (4T1 [6]) | Activity (Cell membrane [7]) [%] | IC50 (HeLa) [µM] | Activity [8] | Activity (MCF7 [9]) [%] | Activity [10] | Activity (MCF7 [11]) | Activity [12] | Activity (MCF7 [13]) [%] | Activity [14] | Activity [15] | Activity (Cell membrane [16]) | selectivity ratio [17] | Activity [18] | Activity [19] | further results
1 | CC(C)C[C@H](NC(=O)[C@H](CCCCN)NC(=O)[C@H](CCCCN)NC(=O)[C@H](CC(C)C)NC(=O)[C@H](CC(C)C)NC(=O)[C@H](CCCCN)NC(=O)[C@H](CCCCN)NC(=O)[C@H](CC(C)C)NC(=O)[C@H](CC(C)C)NC(=O)[C@H](CCCCN)NC(=O)[C@H](CCCCN)NC(=O)[C@H](CC(C)C)NC(=O)[C@@H](N)CC(C)C)C(=O)N[C@@H](CCC(=O)O)C(N)=O (H-LLKKLLKKLLKKLE-NH2) | Non-Toxic | 5.69 | Active | Active | Active | Active | 74.1 | 9.46 | Non-Toxic | ~30 | Toxic | Active | Non-Toxic | 57.2 | Non-Toxic | Non-Toxic | Active | 21.1 | Non-Toxic | Non-Toxic | selectivity ratio [20]: 14.2; Activity (MCF7 [21]): Active; Drug uptake [22]: Not Active; remaining at 6 h, 10000 µM [23]: > 60%; remaining at 12 h, 10000 µM [24]: 28.6%; Activity (MCF7 [25]): Active; Activity (Cell membrane [26]): Active; Activity (Cell membrane [27]): Tde; Activity (MCF7 [28]): Active; Activity (MCF7 [29]): 18%; Activity (Cell membrane [30]): Active; half-life at 10000 µM [31]: 7.78 h; Activity [32]: Toxic; Activity [33]: Non-Toxic; Activity (Cell membrane [34]): Active; Activity (MCF7 [35]): ~50%; IC50 [36]: 21.3 µM; selectivity ratio [37]: 14.2
2 | CC(C)C[C@H](NC(=O)[C@H](CC(C)C)NC(=O)[C@H](CCCCN)NC(=O)[C@H](CCCCN)NC(=O)[C@H](CC(C)C)NC(=O)[C@H](CC(C)C)NC(=O)[C@H](CCCCN)NC(=O)[C@H](CCCCN)NC(=O)[C@H](CC(C)C)NC(=O)[C@H](CC(C)C)NC(=O)[C@H](CCCCN)NC(=O)[C@H](CCCCN)NC(=O)[C@H](CC(C)C)NC(=O)[C@@H](N)CC(C)C)C(N)=O (H-LLKKLLKKLLKKLL-NH2) | Non-Toxic | 3.79 | Active | Active | Active | Active | 82 | 5.91 | Non-Toxic | ~30 | Toxic | Active | Non-Toxic | 58.1 | Non-Toxic | Non-Toxic | Active | 2.96 | Non-Toxic | Non-Toxic | selectivity ratio [20]: 2.27; Activity (MCF7 [21]): Active; Drug uptake [22]: Active; remaining at 6 h, 10000 µM [23]: > 60%; remaining at 12 h, 10000 µM [24]: 45.6%; Activity (MCF7 [25]): Active; Activity (Cell membrane [26]): Active; Activity (Cell membrane [27]): Tde; Activity (MCF7 [28]): Active; Activity (MCF7 [29]): 18.9%; Activity (Cell membrane [30]): Active; half-life at 10000 µM [31]: 11.1 h; Activity [32]: Toxic; Activity [33]: Non-Toxic; Activity (Cell membrane [34]): Active; Activity (MCF7 [35]): ~50%; IC50 [36]: 6.41 µM; selectivity ratio [37]: 1.69
3 | CC(C)C[C@H](NC(=O)[C@H](CCCCN)NC(=O)[C@H](CCCCN)NC(=O)[C@H](CC(C)C)NC(=O)[C@H](CC(C)C)NC(=O)[C@H](CCCCN)NC(=O)[C@H](CCCCN)NC(=O)[C@H](CC(C)C)NC(=O)[C@H](CC(C)C)NC(=O)[C@H](CCCCN)NC(=O)[C@H](CCCCN)NC(=O)[C@H](CC(C)C)NC(=O)[C@@H](N)CC(C)C)C(=O)N[C@@H](CCCC(=O)O)C(N)=O (H-LLKKLLKKLLKKL[Aad]-NH2) | Non-Toxic | 4.4 | Active | Active | Active | Active | 82.3 | 7.15 | Non-Toxic | ~30 | Toxic | Active | Non-Toxic | 55.9 | Non-Toxic | Non-Toxic | Active | 24.9 | Non-Toxic | Non-Toxic | selectivity ratio [20]: 16.3; Activity (MCF7 [21]): Active; Drug uptake [22]: Not Active; remaining at 6 h, 10000 µM [23]: > 60%; remaining at 12 h, 10000 µM [24]: 31.6%; Activity (MCF7 [25]): Active; Activity (Cell membrane [26]): Active; Activity (Cell membrane [27]): Tde; Activity (MCF7 [28]): Active; Activity (MCF7 [29]): 25.9%; Activity (Cell membrane [30]): Active; half-life at 10000 µM [31]: 7.6 h; Activity [32]: Toxic; Activity [33]: Non-Toxic; Activity (Cell membrane [34]): Active; Activity (MCF7 [35]): ~50%; IC50 [36]: 20.1 µM; selectivity ratio [37]: 12.7
